Patent US20260191848A1, “METHODS OF REVERSING PARP-RESISTANCE IN CANCER” (THE TRUSTEES OF COLUMBIA UNIVERSITY IN THE CITY OF NEW YORK, priority 2023, published 2026)
“Also recorded” adds a separate entry of the source.

Assays:
[1] = system: relapsed high-grade ovarian cancer; conditions: relapsed high-grade ovarian cancer patients, p=0.007; cited from earlier work
[2] = system: talazoparib-resistant Brca1-def tumors; assay: Talazoparib-resistant Brca1-def orthotopic allograft in B6/129F1 mice (tumor growth, weight, immunostaining, body weight); type: in vivo, mouse; conditions: for body weight: from treatment initiation until endpoint, talazoparib 0.3 mg/kg/day, axitinib 30 mg/kg/day
Description: (§2) Treatment with Tal (0.3 mg/kg body weight per day, five days/week, oral gavage) began two weeks following tumor-cell injection. Tumors were collected after tumor relapse in the Tal-treated group and were then dissociated and selected to generate Tal-resistant Brca1-def breast cancer cell lines. […] Tal-resistant, Brca1-def tumors were then isolated at 13 weeks following tumor-cell injection. n=32 for Veh-treated mice; n=24 for Tal-treated mice. Data are presented as mean values±SEM. P values were determined by a two-tailed, unpaired, Mann-Whitney test. * at 2 weeks indicates P=0.0169; *** at 3 weeks indicates P=0.0007; **** at 5 and 7 weeks indicates P<0.0001. […] P values were determined by a two-tailed, unpaired, Mann-Whitney test. * at 3 weeks indicates P=0.0174; ns: not significant. […] Treatment began one-week post tumor-cell injection. […] Data are presented as mean values±SEM. P values were determined by a two-tailed, unpaired, Mann-Whitney test. ** at 3 and 4 weeks indicates P=0.0043; ** at 5 weeks indicates P=0.0095.

[3] = system: talazoparib-resistant Bard1-def tumors; assay: Talazoparib-resistant Bard1-def orthotopic allograft in B6/129F1 mice (tumor growth, weight, immunostaining, body weight); type: in vivo, mouse; conditions: for body weight: from treatment initiation until endpoint, talazoparib 0.3 mg/kg/day, axitinib 30 mg/kg/day
Description: as §2

[4] = system: Bard1-def Tal-sensitive tumors; assay: In-vivo PARPi-response-and-recurrence model, Bard1-def orthotopic allograft (talazoparib-sensitive)
Description: (§3) Treatment with Tal (0.3 mg/kg body weight per day, five days/week, oral gavage) began two weeks following tumor-cell injection. Tumors were collected after tumor relapse in the Tal-treated group and were then dissociated and selected to generate Tal-resistant Brca1-def breast cancer cell lines. […] Tal-resistant, Brca1-def tumors were then isolated at 13 weeks following tumor-cell injection. n=32 for Veh-treated mice; n=24 for Tal-treated mice. Data are presented as mean values±SEM. […] FIG. 1C, Mice were injected with the Tal-resistant (“Tal-Res”), Brca1-def breast cancer cell line isolated in B and then checked for sensitivity to Tal. n=21 for Veh-treated mice; n=31 for Tal-treated mice. […] Treatment began one-week post tumor-cell injection. […] Data are presented as mean values±SEM. […] FIG. 1F, Mice were injected with the Tal-Res, Bard1-def breast cancer cell line isolated in E and then checked for sensitivity to Tal. n=12 for Veh-treated mice; n=14 for Tal-treated mice.
(§4) To study mechanisms of PARPi resistance in vivo, mammary glands from syngeneic B6/129F1 mice were orthotopically injected with luciferase-labeled Brca1- or Bard1-deficient mammary cancer cell lines (hereafter referred to as Brca1-def and Bard1-def) derived from Brca1- or Bard1-conditionally deleted mice^23 (FIGS. 1A and 1D). As tumors started to grow, tumor-bearing mice were randomized and treated five days/week with either vehicle or the PARPi talazoparib (referred to as “Tal” in the figures) at a dose of 0.3 mg/kg body weight/day starting at either 14 days (Brca1-def) or 7 days (Bard1-def) post tumor-cell injection. Tumor size was monitored weekly (FIGS. 1B and 1E). […] While tumor growth in Brca1-def models was monitored for 13 weeks post tumor-cell injection, Bard1-def models could only be monitored for 5 weeks post tumor-cell injection due to the onset of cachexia, as described in the previous studies^36. PARPi-resistant tumors were then collected, and cancer cells were purified and re-injected into the mammary glands of new B6/129F1 recipient mice. Mice were treated following the same dosing schedule as described above.

[5] = system: Brca1-def Tal-sensitive tumors; assay: In-vivo PARPi-response-and-recurrence model, Brca1-def orthotopic allograft (talazoparib-sensitive)
Description: as §3, §4

[6] = system: talazoparib-resistant Bard1-def tumor cells (pAKT Ser473, pSTAT3); assay: Immunoblot after recombinant PGF treatment, talazoparib-resistant Bard1-def tumor cells (Con vs Flt1i); type: cell-based; conditions: 50 ng/ml mouse recombinant PGF, serum-free medium, 10 min
Description: (§1) FIG. 18A-FIG. 18H—FLT1 activation in Brca1- and Bard1-def breast tumor cells induces pro-survival AKT signaling. (FIG. 18A, FIG. 18B) Immunoblot analysis was performed on lysates from Flt1-expressing (Con) and -deficient (Flt1i), talazoparib-resistant (“Res”) Brca1- and Bard1-def tumor cells, that were treated with 50 ng/ml of mouse PGF protein using antibodies against phosphorylated-AKT at serine 473 (pAKT Ser473), AKT, and β-actin. […] Scale bars, 20 μm. (FIG. 18D) Immunostained sections from (C) were quantified using automated QuPath software to identify positively stained cells. n=5 mice for Sen and Res groups for both models. Data were presented as mean values±SEM. […] (FIG. 18E) Representative images of IHC for pAKT Ser473 staining on talazoparib-treated “Tal”, Lenti-Con- and Flt1i-expressing Res tumor sections from both models (see FIG. 3C). Scale bars, 20 μm. […] (FIG. 18G) Representative images of IHC for pAKT Ser473 on Tal-treated and Tal+Axi-treated tumor sections from both models (see FIG. 4A/D). Scale bars, 20 μm. (FIG. 18H) Immunostained sections from (G) were quantified using automated QuPath software to identify positively stained cells. For the Brca1-def model, n=4 tumors from both Tal-treated and Tal+Axi-treated mice. For the Bard1-def model, n=5 tumors from both Tal-treated and Tal+Axi-treated mice. Data were presented as mean values±SEM. […]

[7] = system: talazoparib-resistant Brca1-def tumor cells (pAKT Ser473, pSTAT3); assay: Immunoblot after recombinant PGF treatment, talazoparib-resistant Brca1-def tumor cells (Con vs Flt1i); type: cell-based; conditions: 50 ng/ml mouse recombinant PGF, serum-free medium, 15 s
Description: as §1

[8] = talazoparib alone 0.3 mg/kg/day, five days/week, vs vehicle

Molecule: O=C(c1cc(Cc2n[nH]c(=O)c3ccccc23)ccc1F)N1CCN(C(=O)C2CC2)CC1 [olaparib]
- median progression-free survival (PFS) [1]: 8.2 months

Molecule: CNC(=O)c1ccccc1Sc1ccc2c(/C=C/c3ccccn3)n[nH]c2c1 [axitinib]
- body weight [2]: remained stable
- body weight [3]: remained stable

Molecule: Cn1ncnc1[C@H]1c2n[nH]c(=O)c3cc(F)cc(c23)N[C@@H]1c1ccc(F)cc1 [talazoparib]
- relapse tumors arose, time post tumor-cell injection ([4]; Tal treatment begun one week post tumor-cell injection): about three
- development of drug resistance (recurrence of tumors) ([4]; continued talazoparib treatment, monitored 5 weeks post tumor-cell injection): eventually developed drug resistance; also recorded: soon progressed
- tumor growth ([4]; talazoparib 0.3 mg/kg body weight/day, five days/week, oral gavage, from 7 days post tumor-cell injection, vs vehicle): responded initially
- body weight [2]: remained stable
- tumor growth and weight at endpoint, Flt1-repressed (Flt1i) resistant tumor cells ([2]; talazoparib 0.3 mg/kg body weight/day, five days/week, Flt1i+Tal vs Lenti-Con+Tal, endpoint 4 weeks): re-sensitizes PARPi-resistant tumors to talazoparib
- tumor regression / response of PARPi-resistant tumor lines to PARPi treatment [2, 8]: no tumor regression; also recorded: failed to respond in-vivo
- body weight [3]: remained stable
- tumor growth and weight at endpoint, Flt1-repressed (Flt1i) resistant tumor cells ([3]; talazoparib 0.3 mg/kg body weight/day, five days/week, Flt1i+Tal vs Lenti-Con+Tal, endpoint 3 weeks): re-sensitizes PARPi-resistant tumors to talazoparib
- tumor regression / response of PARPi-resistant tumor lines to PARPi treatment [3, 8]: no tumor regression; also recorded: failed to respond in-vivo
- relapse, time following the start of Tal treatment ([5]; Tal 0.3 mg/kg per day, five days/week, oral gavage, begun two weeks after tumor-cell injection): about seven
- development of drug resistance (recurrence of tumors) ([5]; continued talazoparib treatment, monitored 13 weeks post tumor-cell injection): eventually developed drug resistance; also recorded: eventually became refractory to the treatment
- tumor growth ([5]; talazoparib 0.3 mg/kg body weight/day, five days/week, oral gavage, from 14 days post tumor-cell injection, vs vehicle): suppressed tumor growth for several weeks

B1: PGF: mouse recombinant PGF (R&D Systems, #465-PL-010), placental growth factor (protein)
chain: VHSQGALSAGNNSTEVEVVPFNEVWGRSYCRPMEKLVYILDEYPDEVSHIFSPSCVLLSRCSGCCGDEGLHCVPIKTANITMQILKIPPNRDPHFYVEMTFSQDVLCECRPILETTKAERRKTKGKRKRSRNSQTEEPHP
- activation of AKT (pAKT Ser473 immunoblot) [6]: FLT1-dependent activation of AKT
- activation of STAT3 (pSTAT3 immunoblot) [6]: not STAT3
- activation of AKT (pAKT Ser473 immunoblot) [7]: FLT1-dependent activation of AKT
- activation of STAT3 (pSTAT3 immunoblot) [7]: not STAT3
